Measured values published in patent publication US10045968B2, “Bicyclic compound, production and use thereof” (TOBIRA THERAPEUTICS, INC., priority 2001, dated 2018).

Assays:
[1] = biological target: T1, human CCR5 (Homo sapiens, UniProt P51681); experiment: Inhibition of [125I]-RANTES binding to CCR5/CHO cells (CCR5 antagonist activity); details: test compound 1 μM, 100 pM [125I]-RANTES as ligand, room temperature; for inhibition at 1 µM: 40 min, read-out: Binding Inhibitory Ratio (%)
T1 construct: expressed in transfected cells; host or cells: CHO-K1 cells, stably transfected with pCKR5 (pcDNA3.1 backbone), Geneticin-selected
Experimental: (1) Cloning of Human CCR5 Chemokine Receptor Cloning of CCR5 gene was conducted from human spleen cDNA by PCR method. Using cDNA (0.5 ng) from spleen (Toyobo, QUICK-Clone cDNA) as a genetic template, primer sets prepared by referring to CCR5 gene nucleotide sequence described by Samson et al. (Biochemistry 35 (11), 3362-3367 (1996), i.e., (2) Preparation of Expression Plasmid of Human CCR5 […] The DNA fragments and an expression plasmid for animal cells pcDN A3.1 (Funakoshi), which was previously digested by XbaI and BamHI, were mixed and ligated by DNA Ligation Kit Ver. 2 (Takara Shuzo). Transformation of E. coli JM109 competent cells (Takara Shuzo) gave plasmid pCKR5. (3) Introduction of the Human CCR5 Expression Plasmid into CHO-K1 Cells and Expression Thereof […] The cells were washed with PBS (Lifetech Oriental), centrifuged (1000 rpm, 5 minutes), and resuspended in PBS. The DNA was introduced into the cells using Gene Pulser (BioRad) according to the following conditions. […] The cells were diluted to a concentration of 10^4 cells/ml, and inoculated in 96 well plate (Becton Dickinson), to obtain Geneticin-resistant cells. The Geneticin-resistant cells ware grown in 96 well plate (Becton Dickinson), and CCR5 expressing cells were selected from the resistant cells. Namely, in an assay buffer, (Ham F12 medium containing 0.5% BSA, and 20 mM HEPES (Wako Pure Chemical Ind., pH 7.2)), containing 200 pM [^125I]-RANTES (Amersham) as a ligand, the cells were subjected to binding reaction at room temperature for 40 minutes. The well plate containing the cells was washed with ice-cooled PBS, added with 1M NaOH in an amount of 50 μl/well and stirred. The cells to which the ligand bound specifically, i.e., CCR5/CHO cells, were selected by measurement of radioactivity by γ-counter. (4) Evaluation of Compounds Based on CCR5 Antagonist Activity The CCR5/CHO cells were inoculated in 96 well microplate at a concentration of 5×10^4 cells/well, and grown for 24 hours. After removal of the medium by aspiration, to each well was added an assay buffer containing a test compound (1 μM), and (^125I)/RANTES (Amersham) used as a ligand at a concentration of 100 pM. The mixture was subjected to the reaction at room temperature for 40 minutes. After removal of the assay buffer by aspiration, each well was washed with cooled PBS twice. Then, 200 μl MicroScint 20 (Packerd) was added to each well, and the radioactivity of each well was measured by TopCount (Packard). According to the method above, inhibitory ratios to CCR5 binding of the test compounds were determined.

T1 sequence (P51681 whole entry): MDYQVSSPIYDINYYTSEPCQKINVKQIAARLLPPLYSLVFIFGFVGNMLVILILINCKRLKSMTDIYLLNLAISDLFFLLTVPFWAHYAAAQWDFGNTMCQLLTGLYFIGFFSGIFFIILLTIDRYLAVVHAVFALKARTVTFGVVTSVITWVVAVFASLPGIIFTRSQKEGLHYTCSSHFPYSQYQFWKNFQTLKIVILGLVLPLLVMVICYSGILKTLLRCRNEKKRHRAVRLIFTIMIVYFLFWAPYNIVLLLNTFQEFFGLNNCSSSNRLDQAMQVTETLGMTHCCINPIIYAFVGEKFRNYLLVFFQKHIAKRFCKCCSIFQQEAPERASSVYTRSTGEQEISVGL

Row | SMILES | melting point [°C] | inhibition at 1 µM [1] [%] | Binding Inhibitory Ratio (%) ([1]; 40 minutes)
1 | CCCCOCCOc1ccc(-c2ccc3c(c2)C=C(C(=O)Nc2ccc(SCc4nccn4CCCC(=O)OCC)cc2)CCCN3CC(C)C)cc1 [Compound 33, ethyl 4-(2-(((4-(((8-(4-(2-butoxyethoxy)phenyl)-1-isobutyl-1,2,3,4-tetrahydro-1-benzoazocine-5-yl)carbonyl)amino)phenyl)sulfanyl)-methyl)imidazol-1-yl)butanoate] | 130 to 131 |  | 
2 | CCCCOCCOc1ccc(-c2ccc3c(c2)C=C(C(=O)Nc2ccc([S+]([O-])Cc4cncn4CCC)cc2)CCCN3c2ccccc2)cc1 (centres unmarked) [Compound 35, 8-[4-(2-butoxyethoxy)phenyl]-1-phenyl-N-[4-[[[1-propylimidazol-5-yl]methyl]sulfinyl]phenyl]-1,2,3,4-tetrahydro-1-benzoazocine-5-carboxamide] |  | 100 | 
3 | CCCCOCCOc1ccc(-c2ccc3c(c2)C=C(C(=O)Nc2ccc(SCc4c(C)ncn4CCC)cc2)CCCN3CC(C)C)cc1 [Compound 36, 8-[4-(2-butoxyethoxy)phenyl]-1-isobutyl-N-[4-[[[4-methyl-1-propylimidazol-5-yl]methyl]sulfanyl]phenyl]-1,2,3,4-tetrahydro-1-benzoazocine-5-carboxamide] |  | 97 | 
4 | CCCCOCCOc1ccc(-c2ccc3c(c2)C=C(C(=O)Nc2ccc([S+]([O-])Cc4c(C)ncn4CCC)cc2)CCCN3CC(C)C)cc1 (centres unmarked) [Compound 37, 8-[4-(2-butoxyethoxy)phenyl]-1-isobutyl-N-[4-[[[4-methyl-1-propylimidazol-5-yl]methyl]sulfinyl]phenyl]-1,2,3,4-tetrahydro-1-benzoazocine-5-carboxamide] |  | 100 | 
5 | CCCCOCCOc1ccc(-c2ccc3c(c2)C=C(C(=O)Nc2ccc(SCc4cncn4CCC)c(C)c2)CCCN3CC(C)C)cc1 [Compound 38, 8-[4-(2-butoxyethoxy)phenyl]-1-isobutyl-N-[3-methyl-4-[[[1-propylimidazol-5-yl]methyl]sulfanyl]phenyl]-1,2,3,4-tetrahydro-1-benzoazocine-5-carboxamide] |  | 94 | 
6 | CCCCOCCOc1ccc(-c2ccc3c(c2)C=C(C(=O)Nc2ccc([S+]([O-])Cc4cncn4CCC)c(C)c2)CCCN3CC(C)C)cc1 (centres unmarked) [Compound 39, 8-[4-(2-butoxyethoxy)phenyl]-1-isobutyl-N-[3-methyl-4-[[[1-propylimidazol-5-yl]methyl]sulfinyl]phenyl]-1,2,3,4-tetrahydro-1-benzoazocine-5-carboxamide] |  | 99 | 
7 | CCCCOCCOc1ccc(-c2ccc3c(c2)C=C(C(=O)Nc2ccc(CN(C)C4CCOCC4)cc2)CCCN3CC(C)C)cc1 [Compound 42, 8-(4-(2-butoxyethoxy)phenyl)-1-isobutyl-N-(4-((methyl(tetrahydro-2H-pyran-4-yl)amino)methyl)phenyl)-1,2,3,4-tetrahydro-1-benzoazocine-5-carboxamide] |  | 90 | 
8 | CCCOCCOc1ccc(-c2ccc3c(c2)C=C(C(=O)Nc2ccc([S@@+]([O-])Cc4cncn4CCC)cc2)CCCN3CCC)cc1.CS(=O)(=O)O [Compound 45, (S)-(−)-8-[4-(2-propoxyethoxy)phenyl]-1-propyl-N-[4-[[(1-propyl-1H-imidazol-5-yl)methyl]sulfinyl]phenyl]-1,2,3,4-tetrahydro-1-benzoazocine-5-carboxamide/methanesulfonate] |  |  | 96
9 | CCCCOCCOc1ccc(-c2ccc3c(c2)C=C(C(=O)Nc2ccc(SCc4nncn4CCC)cc2)CCCN3CC(C)C)cc1 [Compound 46, 8-[4-(2-butoxyethoxy)phenyl]-1-isobutyl-N-[4-[[(4-propyl-4H-1,2,4-triazol-3-yl)methyl]thio]phenyl]-1,2,3,4-tetrahydro-1-benzazocine-5-carboxamide] | 122 to 126 | 99 | 
10 | CCCCOCCOc1ccc(-c2ccc3c(c2)C=C(C(=O)Nc2ccc([S+]([O-])Cc4nncn4CCC)cc2)CCCN3CC(C)C)cc1 (centres unmarked) [Compound 47, 8-[4-(2-butoxyethoxy)phenyl]-1-isobutyl-N-[4-[[(4-propyl-4H-1,2,4-triazol-3-yl)methyl]sulfinyl]phenyl]-1,2,3,4-tetrahydro-1-benzazocin-5-carboxamide] | 105 to 110 |  | 
11 | CCCCOCCOc1ccc(-c2ccc3c(c2)C=C(C(=O)Nc2ccc([S+]([O-])Cc4nncn4CCC)cc2)CCCN3CCC)cc1 (centres unmarked) [Compound 50, 8-[4-(2-butoxyethoxy)phenyl]-1-propyl-N-[4-[[(4-propyl-4H-1,2,4-triazol-3-yl)methyl]sulfinyl]phenyl]-1,2,3,4-tetrahydro-1-benzazocine-5-carboxamide] |  | 93 | 
12 | CCCCOCCOc1ccc(-c2ccc3c(c2)C=C(C(=O)Nc2ccc([S+]([O-])Cc4nncn4CCC)cc2)CCCN3CCC)cc1 (centres unmarked) [Compound 51, 8-[4-(2-butoxyethoxy)phenyl]-1-propyl-N-[4-[[(4-propyl-4H-1,2,4-triazol-3-yl)methyl]sulfinyl]phenyl]-1,2,3,4-tetrahydro-1-benzazocine-5-carboxamide] | 167 to 170 |  | 
13 | CCCCOCCOc1ccc(-c2ccc3c(c2)C=C(C(=O)Nc2ccc([S+]([O-])Cc4nccn4CCCC(=O)OCC)cc2)CCCN3CC(C)C)cc1 (centres unmarked) [Compound 54, ethyl 4-(2-(((4-(((8-(4-(2-butoxyethoxy)phenyl)-1-isobutyl-1,2,3,4-tetrahydro-1-benzazocine-5-yl)carbonyl)amino)phenyl)sulfinyl)methyl)imidazol-1-yl)butanoate] | 133.5 to 134.5 |  | 
